Laboratory results taken from ChEMBL document CHEMBL1201862, “PubChem BioAssay data set” (2004).
The source made the active and inactive calls.

Tests used:
DNA topoisomerase = DNA topoisomerase (Yersinia pestis, UniProt A0A2S9PM60); assay: Yersinia topoisomerase I cleavage product accumulation – biochemical, cherry-pick, dose response (AID 588525)
INS1 [1] = assay: INS-1E mitochondrial potential loss inhibitors – cell-based, JC-1 fluorescence, dry powder, set 2, dose response (AID 488867); type: functional; conditions: Rattus norvegicus
INS1 [2] = assay: INS-1E mitochondrial potential rescue under cytokines – cell-based, JC-1 fluorescence ratio, dry powder, dose response (AID 488931); type: functional; conditions: Rattus norvegicus
Phospholipase D1 = target: T1, Phospholipase D1 (Homo sapiens, UniProt Q13393); assay: cellular phospholipase D1 inhibition IC50 – cell-based, dose response (AID 602151); type: functional;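 also: cellular PLD1 assay in Calu-1 cells stimulated with PMA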
T1 sequence (Q13393 whole entry): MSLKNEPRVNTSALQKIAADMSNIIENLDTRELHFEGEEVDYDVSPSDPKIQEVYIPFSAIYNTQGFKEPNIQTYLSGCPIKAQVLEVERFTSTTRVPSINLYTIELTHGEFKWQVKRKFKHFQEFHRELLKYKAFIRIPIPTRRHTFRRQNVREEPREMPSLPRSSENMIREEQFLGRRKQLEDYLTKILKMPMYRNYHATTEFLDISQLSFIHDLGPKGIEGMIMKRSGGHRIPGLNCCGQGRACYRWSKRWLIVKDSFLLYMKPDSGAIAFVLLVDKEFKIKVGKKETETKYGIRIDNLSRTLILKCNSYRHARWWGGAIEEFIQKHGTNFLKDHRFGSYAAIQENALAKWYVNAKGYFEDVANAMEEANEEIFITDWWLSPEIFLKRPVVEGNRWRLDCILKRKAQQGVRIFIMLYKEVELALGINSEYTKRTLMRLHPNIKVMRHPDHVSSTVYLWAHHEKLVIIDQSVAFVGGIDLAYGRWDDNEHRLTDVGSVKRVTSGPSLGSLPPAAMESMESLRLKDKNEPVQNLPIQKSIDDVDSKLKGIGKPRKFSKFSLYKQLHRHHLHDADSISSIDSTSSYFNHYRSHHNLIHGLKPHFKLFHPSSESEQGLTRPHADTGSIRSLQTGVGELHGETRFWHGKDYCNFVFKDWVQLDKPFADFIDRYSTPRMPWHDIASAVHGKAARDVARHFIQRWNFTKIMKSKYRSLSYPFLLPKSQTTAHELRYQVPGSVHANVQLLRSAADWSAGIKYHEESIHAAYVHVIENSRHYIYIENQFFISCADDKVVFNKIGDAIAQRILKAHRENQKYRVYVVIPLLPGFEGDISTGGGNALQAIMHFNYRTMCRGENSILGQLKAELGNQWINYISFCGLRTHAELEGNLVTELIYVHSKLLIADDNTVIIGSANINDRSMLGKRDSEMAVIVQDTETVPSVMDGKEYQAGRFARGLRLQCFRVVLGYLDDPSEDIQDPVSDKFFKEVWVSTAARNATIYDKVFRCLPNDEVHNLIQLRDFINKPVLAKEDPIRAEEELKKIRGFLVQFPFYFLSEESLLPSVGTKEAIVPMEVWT

Phospholipase D2 = Phospholipase D2 (Homo sapiens, UniProt O14939); assay: cellular phospholipase D2 inhibition IC50 – cell-based, dose response (AID 602147); type: functional;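 also: cellular assay in HEK293 cells overexpressing GFP-tagged PLD2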
Sequence of Phospholipase D2 (O14939 whole entry): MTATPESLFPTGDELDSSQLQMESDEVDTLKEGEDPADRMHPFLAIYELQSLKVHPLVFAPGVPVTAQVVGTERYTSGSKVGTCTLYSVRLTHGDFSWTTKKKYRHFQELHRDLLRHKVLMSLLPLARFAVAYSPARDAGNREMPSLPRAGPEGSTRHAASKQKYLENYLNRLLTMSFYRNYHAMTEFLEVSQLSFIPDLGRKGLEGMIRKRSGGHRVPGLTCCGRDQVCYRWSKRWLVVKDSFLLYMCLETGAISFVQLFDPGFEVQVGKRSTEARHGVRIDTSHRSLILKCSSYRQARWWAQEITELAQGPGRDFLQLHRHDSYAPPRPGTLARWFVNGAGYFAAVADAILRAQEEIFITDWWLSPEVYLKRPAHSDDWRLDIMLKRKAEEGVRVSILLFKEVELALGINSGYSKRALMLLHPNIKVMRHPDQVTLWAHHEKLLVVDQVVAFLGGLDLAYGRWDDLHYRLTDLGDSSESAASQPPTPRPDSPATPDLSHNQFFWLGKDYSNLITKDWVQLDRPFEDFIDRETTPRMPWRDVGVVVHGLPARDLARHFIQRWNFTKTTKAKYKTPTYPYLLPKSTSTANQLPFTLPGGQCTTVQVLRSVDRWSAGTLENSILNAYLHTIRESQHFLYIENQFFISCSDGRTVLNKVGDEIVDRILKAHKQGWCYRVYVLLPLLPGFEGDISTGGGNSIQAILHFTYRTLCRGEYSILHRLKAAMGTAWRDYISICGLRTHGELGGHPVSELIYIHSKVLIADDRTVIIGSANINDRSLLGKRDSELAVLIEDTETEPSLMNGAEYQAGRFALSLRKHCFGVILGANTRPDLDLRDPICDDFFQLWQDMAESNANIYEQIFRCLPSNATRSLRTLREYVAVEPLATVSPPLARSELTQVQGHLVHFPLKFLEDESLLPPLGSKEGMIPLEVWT

Sequence of DNA topoisomerase (A0A2S9PM60 whole entry): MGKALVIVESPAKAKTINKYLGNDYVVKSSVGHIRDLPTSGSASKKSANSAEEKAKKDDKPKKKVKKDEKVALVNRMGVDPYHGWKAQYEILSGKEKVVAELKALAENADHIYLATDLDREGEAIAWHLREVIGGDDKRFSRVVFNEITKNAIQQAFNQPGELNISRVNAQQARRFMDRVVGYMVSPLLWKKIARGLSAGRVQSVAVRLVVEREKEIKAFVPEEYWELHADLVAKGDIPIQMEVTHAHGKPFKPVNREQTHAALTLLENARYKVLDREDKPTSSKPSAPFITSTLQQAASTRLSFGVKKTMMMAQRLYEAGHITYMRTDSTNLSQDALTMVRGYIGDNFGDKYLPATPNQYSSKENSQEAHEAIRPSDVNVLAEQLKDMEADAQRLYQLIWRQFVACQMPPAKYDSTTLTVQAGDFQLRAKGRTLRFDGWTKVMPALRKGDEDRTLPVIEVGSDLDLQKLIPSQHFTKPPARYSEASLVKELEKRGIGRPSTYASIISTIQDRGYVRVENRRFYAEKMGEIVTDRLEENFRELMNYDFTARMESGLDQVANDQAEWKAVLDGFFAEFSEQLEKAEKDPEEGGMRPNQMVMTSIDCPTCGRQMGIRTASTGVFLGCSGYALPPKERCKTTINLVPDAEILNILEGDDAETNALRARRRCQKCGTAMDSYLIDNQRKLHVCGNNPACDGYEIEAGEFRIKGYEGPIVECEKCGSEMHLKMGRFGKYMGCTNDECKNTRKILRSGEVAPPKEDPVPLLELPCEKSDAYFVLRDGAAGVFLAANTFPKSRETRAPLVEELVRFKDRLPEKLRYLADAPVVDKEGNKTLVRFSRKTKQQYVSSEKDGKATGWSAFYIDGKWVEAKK

For `O=C(Nc1ccccc1Cl)OCC#CCOC(=O)Nc1ccccc1Cl`, the AC50 (DNA topoisomerase) was 12.6 µM (active).

`COc1ccc(S(=O)(=O)N(C)C[C@@H]2Oc3c(NC(=O)Nc4cccc5ccccc45)cccc3C(=O)N([C@@H](C)CO)C[C@H]2C)cc1OC` was tested, and the AC50 (INS1 [1]) was 116 µM (active) and the AC50 (INS1 [2]) was 85 µM (active).

With `O=C(NCCN1CCC2(CC1)C(=O)NCN2c1cccc(F)c1)c1ccc2c(c1)C(=O)OC2=O` the IC50 (Phospholipase D1) was 5.55 µM (active) and the IC50 (Phospholipase D2) was 0.265 µM (active).
